Where two headings read alike, the source gives them in different places.
Tests used:
[1] = test system: T cells (splenic T cell proliferation, co-cultured spleen cells from two strains of mice); test: Mixed lymphocyte response (MLR); type: cell-based; conditions: Mus musculus, Anti-inflammatory/Anti-proliferative Activity
Excerpt: i Mixed lymphocyte response (MLR).
(§1) The MLR assay measures the effects of a study compound on the activation and antigen presentation of T-lymphocytes, therefore determining immunomodulatory properties. The mouse spleen cell mitogen-induced blastogenesis and the BUD-8 human fibroblast proliferation assays measure the effects of the compounds of the present invention on cellular proliferation of cells involved in the pathogenesis of autoimmune diseases. These two assays are appropriate as screens to ascertain anti-inflammatory and/or autoimmune diseases.
The MLR is a classical assay used to measure T cell function by studying the proliferation response of T cells which are activated in vitro by genetically disparate stimulator cells. This is accomplished by co-culturing spleen cells from two different strains of mice. Splenic T cell proliferation occurs as a result of cellular activation signals generated by the ongoing cellular interactions.
(§2) The detailed experimental procedure for the above-mentioned assays is described in detail in U.S. Pat. Nos. 5,360,790 and 5,367,062 incorporated herein by reference.

[2] = test system: SK-MEL-28 Melanoma Xenografts; test: Early Stage SK-MEL-28 Melanoma Xenografts; conditions: for Drug Deaths: of 6 mice; for Opt. % T/C: >40 considered inactive
Experimental: (§3) In this in vivo model Murine or human tumor fragments (30 mg) are implanted subcutaneously into the axillary region of pathogen-free immunocompetent or immunodefficient mice, respectively, on experimental day 0. Test agent treatment is initiated either on the day which is historically associated with the start of tumor growth, or when the tumor is palpable. Tumor size and body weights are obtained approximately two times per week. Tumor weights are calculated from caliper measurements of tumor dimensions in mm using the formula for a prolate ellipsoid:
(§4) (L×W^2)/2; where L is the longer of the 2 measurements
(§5) Generally, tumor size is monitored until an upper weight limit of 500 mg is attained.

[3] = test system: human tumor cell lines (approximately 60); test: NCI in vitro human tumor cell line screen (SRB), mean graph midpoints over all cell lines; type: cell-based
Experimental: In performing in vitro human tumor cell line assay, a total of approximately 60 human tumor cell lines derived from ten cancer types (leukemia, non-small cell lung cancer, small cell lung cancer, colon cancer, CNS cancer, melanoma, ovarian cancer, renal cancer, breast cancer and prostate cancer) were used in this assay. Compounds were tested at different concentrations against every cell line. All lines are inoculated into a series of standard 96-well microtiter plates on day 0, in the majority of cases at 20,000 cells/well, and then pre-incubated in the absence of testing agent for 24 hours. A testing agent was then added in five 10-fold dilutions and incubated for a further period of 48 hours. Following this, the cells are fixed in situ, washed, and dried. Sulforhodamine B (SRB, protein binding dye) is added, followed by further washing and drying of the stained adherent cell mass. The bound stain is solubilized and measured spectrophotometrically on an automatic plate reader.
For each compound, dose response curves for each cell line were measured with five different drug concentrations, and the concentration causing 50% cell growth inhibition (GI50), total cell growth inhibition (TGI, 0% growth), and 50% cell death (LC50, -50% growth) compared with the control was calculated. […] In these graphs, the mean logarithmic value of GI50 in all cell lines for each tested compound is used as the midpoint of that bar graph.

BUD-8 human fibroblast = test: BUD-8 human cell line fibroblast proliferation assay (FIB.); type: cell-based; conditions: Anti-inflammatory/Anti-proliferative Activity
Excerpt: ii BUD-8 human cell line fibroblast proliferation assay.
as §1
The skin cell fibroblast line, BUD-8, was originally derived from the normal skin of a person and can now be obtained from the American Type Culture Collection, Rockville, Md.
as §2

[4] = test system: mouse spleen cell (T-lymphocyte); test: Concanavalin A (CON-A) assay, mouse spleen cell mitogen induced blastogenesis; type: cell-based; conditions: Anti-inflammatory/Anti-proliferative Activity
Excerpt: iii Concanavalin A assay (the mouse spleen cell mitogen induced blastogenesis).
as §1
It is known that the induction and maintenance of most inflammatory diseases are typically due to the unrestricted activity of T-lymphocytes. Therefore, it is advantageous to identify compounds which are modulators of T-lymphocyte activity for eventual use in the regulation of inflammatory diseases, including acquired immune deficiency syndrome, psoriasis, systemic lupus, erythromatosus, and rheumatoid arthritis.
as §2

P388 Murine Leukemia = P388 Murine Leukemia in vivo
Experimental: Two of the compounds of the present invention (Ic and Im) were also tested against P388 Murine Leukemia.

[5] = test system: UACC-62 Melanoma Xenografts; test: Early Stage Subcutaneous Tumor Model UACC-62 Melanoma Xenografts; conditions: for Drug Deaths: of 6 mice; for Opt. % T/C: >40 considered inactive
Experimental: as §3, §4, §5

[6] = test system: COLO 205 Colon Tumor Xenografts; test: Early Stage SC COLO 205 Colon Tumor Xenografts; conditions: for Drug Deaths: of 6 mice; for Opt. % T/C: >40 considered inactive
Experimental: as §3, §4, §5

[7] = 130 mg/kg/dose IP QD × 5, day 3
[8] = Ic 60, 40 and 27 mg/kg/dose, Im 120, 80 and 54 mg/kg/dose
[9] = 130 mg/kg/dose IP Q4D × 3, day 7

CCCCCCCCCCCCOC[C@@]12O[C@@H](C)[C@@H](OCCN3CCCCC3)[C@@H]1OC(C)(C)O2 [Im, 2,3-O-Isopropylidene-6-deoxy-1-O-dodecyl-4-O-ethylpiperidinyl-α-L-xylo-2-hexulofuranose]
IC50 [1]: < 1 µM
Drug Deaths ([2]; 54 mg/kg/dose IP QD × 5, day 3): 1
Opt. % T/C ([2]; 54 mg/kg/dose IP QD × 5, day 3, optimum on day 16): 47%
Drug Deaths ([2]; 90 mg/kg/dose IP QD × 5, day 3): 2
Opt. % T/C [2, 7]: Toxic
Drug Deaths [2, 7]: 5
Opt. % T/C ([2]; Im 90 mg/kg/dose IP QD × 5, day 3, optimum on day 9): 49%
CC50 ([3]; Homo sapiens, 50% cell death (-50% growth), average of all cell lines, 48 h, read-out: log10 LC50 mean graph midpoint (converted)): 50.1 µM
GI50 ([3]; Homo sapiens, 50% cell growth inhibition, average of all cell lines, 48 h, read-out: GI50 (average)): 20.2 µM
GI50 ([3]; Homo sapiens, average of all cell lines, log10 of molar concentration, 48 h, read-out: log10 I50 (log10 GI50 mean graph midpoint) (converted)): 9.77 µM
IC (TGI) ([3]; Homo sapiens, total cell growth inhibition (0% growth), average of all cell lines, 48 h, read-out: log10 TGI mean graph midpoint (converted)): 22.9 µM
in vitro activity in words ([3]; various in vitro cell lines, IC50, average GI50, mean graph pattern): significant activity in various in vitro cell lines
IC50 (BUD-8 human fibroblast): 3.6 µM
IC50 [4]: 7.4 µM
antitumor activity (P388 Murine Leukemia; [8]): only slight antitumor activity
toxicity (P388 Murine Leukemia; [8]): toxic at the higher dose levels
maximally tolerated dose (P388 Murine Leukemia; mouse, in vivo): a maximally tolerated dose was not achieved
Drug Deaths ([5]; 54 mg/kg/dose IP Q4D × 3, day 6): 0
Opt. % T/C ([5]; 54 mg/kg/dose IP Q4D × 3, day 6, optimum on day 9): 51%
Drug Deaths ([5]; 90 mg/kg/dose IP Q4D × 3, day 6): 0
Opt. % T/C ([5]; 90 mg/kg/dose IP Q4D × 3, day 6, optimum on day 16): 44%
Drug Deaths ([5]; 130 mg/kg/dose IP Q4D × 3, day 6): 1
Opt. % T/C ([5]; 130 mg/kg/dose IP Q4D × 3, day 6, optimum on day 16): 42%
Drug Deaths ([6]; 54 mg/kg/dose IP Q4D × 3, day 7): 0
Opt. % T/C ([6]; 54 mg/kg/dose IP Q4D × 3, day 7, optimum on day 36): 44%
Drug Deaths ([6]; 90 mg/kg/dose IP Q4D × 3, day 7): 0
Opt. % T/C [6, 9]: Toxic
Drug Deaths [6, 9]: 4
Opt. % T/C ([6]; Im 90 mg/kg/dose IP Q4D × 3, day 7, optimum on day 29): 45%

Source: patent US5637570A, “Disubstituted and trisubstituted derivatives of 2,3:4,6-di-O-isopropylidene-α-L-xylo-2-hexulofuranosonic acid having anti-cancer, anti-inflammatory and anti-proliferative activity” (Chemora Pharmochem, priority 1995, dated 1997)
